Measured values: ChEMBL document CHEMBL5244235, “Diarylpentanoids with antitumor activity: A critical review of structure-activity relationship studies” (Eur J Med Chem, 2020)

Columns and labels:
[1] = test system: P388; assay: Antiproliferative activity against mouse P388 cells assessed as cell growth inhibition; assay type: functional, cell-based
[2] = test system: L1210; assay: Antiproliferative activity against mouse L1210 cells assessed as cell growth inhibition; assay type: functional, cell-based
[3] = Antiproliferative activity against human Molt 4/C8 cells assessed as cell growth inhibition; assay type: functional, cell-based; details: Molt4/C8
[4] = test system: CCRF-CEM; assay: Antiproliferative activity against human CEM cells assessed as cell growth inhibition; assay type: functional, cell-based
[5] = test system: GCIY; assay: Antiproliferative activity against human GCIY cells assessed as cell growth inhibition measured after 72 hrs; assay type: functional, cell-based
[6] = Antiproliferative activity against human SH-10-TC cells assessed as cell growth inhibition measured after 72 hrs; assay type: functional, cell-based
[7] = test system: HCT-116; assay: Antiproliferative activity against human HCT-116 cells assessed as cell growth inhibition measured after 72 hrs; assay type: functional, cell-based; details: HCT-116, 72 h
[8] = test system: DLD-1; assay: Antiproliferative activity against human DLD-1 cells assessed as cell growth inhibition measured after 72 hrs; assay type: functional, cell-based; details: DLD-1, 72 h
[9] = test system: A549; assay: Antiproliferative activity against human A549 cells assessed as cell growth inhibition measured after 72 hrs; assay type: functional, cell-based; details: A549, 72 h
[10] = test system: ACHN; assay: Antiproliferative activity against human ACHN cells assessed as cell growth inhibition measured after 72 hrs; assay type: functional, cell-based
[11] = test system: Huh-7; assay: Antiproliferative activity against human Huh-7 cells assessed as cell growth inhibition measured after 72 hrs; assay type: functional, cell-based; details: Huh-7, 72 h
[12] = Antiproliferative activity against human OVK18 cells assessed as cell growth inhibition measured after 72 hrs; assay type: functional, cell-based; details: OVK18, 72 h
[13] = test system: MCF7; assay: Antiproliferative activity against human MCF7 cells assessed as cell growth inhibition measured after 72 hrs; assay type: functional, cell-based; details: MCF7, 72 h
[14] = test system: A-431; assay: Antiproliferative activity against human A-431 cells assessed as cell growth inhibition measured after 72 hrs; assay type: functional, cell-based; details: A-431, 72 h
[15] = test system: HuCCT-1; assay: Antiproliferative activity against human HuCCT-1 cells assessed as cell growth inhibition measured after 72 hrs; assay type: functional, cell-based; details: HuCCT-1, 72 h
[16] = test system: 8505C; assay: Antiproliferative activity against human 8505C cells assessed as cell growth inhibition measured after 72 hrs; assay type: functional, cell-based
[17] = test system: G-361; assay: Antiproliferative activity against human G-361 cells assessed as cell growth inhibition measured after 72 hrs; assay type: functional, cell-based; details: G-361, 72 h
[18] = test system: PC-3; assay: Antiproliferative activity against human PC-3 cells assessed as cell growth inhibition measured after 72 hrs; assay type: functional, cell-based; details: PC-3, 72 h
[19] = Antiproliferative activity against human PK-1 cells assessed as cell growth inhibition measured after 72 hrs; assay type: functional, cell-based; details: PK-1, 72 h
[20] = test system: MDA-MB-231; assay: Growth inhibition of human MDA-MB-231 cells measured after 72 hrs by microplate reader analysis; assay type: functional
[21] = test system: RPMI-7951; assay: Growth inhibition of human RPMI-7951 cells measured after 72 hrs by microplate reader analysis; assay type: functional, cell-based; details: for GI50: RPMI-7951, time 72 hrs

SMILES | IC50 [1] [nM] | IC50 [2] [nM] | IC50 [3] [nM] | IC50 [4] [nM] | further results
COc1ccc(C(=O)/C=C/c2ccc(C(=O)N3C/C(=C\c4ccccc4)C(=O)/C(=C/c4ccccc4)C3)cc2)cc1OC | 221 | 5340 | 1600 | 1610 | –
C=CC(=O)N1C/C(=C\c2ccc(OC)cc2)C(=O)/C(=C/c2ccc(OC)cc2)C1 | 280 | 280 | 280 | 280 | –
O=C1/C(=C/c2ccccc2)CN(C(=O)c2ccc(/C=C/C(=O)c3ccc(O)cc3)cc2)C/C1=C\c1ccccc1 | 221 | – | 1600 | 1610 | –
Cc1ccc(/C=C/C(=O)N2C/C(=C\c3ccccc3)C(=O)/C(=C/c3ccccc3)C2)cc1 | 221 | 5340 | 1600 | 1610 | –
CN(C)c1ccc(/C=C2\CNC/C(=C\c3ccc(N(C)C)cc3)C2=O)cc1 | 810 | 810 | 810 | 810 | –
O=C1/C(=C/c2ccc(Cl)cc2)CNC/C1=C\c1ccc(Cl)cc1 | 810 | 810 | 810 | 810 | –
COc1cc(/C=C/C(=O)N2C/C(=C\c3ccccc3)C(=O)/C(=C/c3ccccc3)C2)cc(OC)c1OC | 221 | 5340 | 1600 | 1610 | –
Cc1ccc(C(=O)/C=C/c2ccc(C(=O)N3C/C(=C\c4ccccc4)C(=O)/C(=C/c4ccccc4)C3)cc2)cc1C | 221 | 5340 | 1600 | 1610 | –
COc1ccc(/C=C2\CNC/C(=C\c3ccc(OC)cc3)C2=O)cc1 | 810 | 810 | 810 | 810 | –
O=C1/C(=C/c2ccccc2)CN(C(=O)/C=C/c2ccccc2)C/C1=C\c1ccccc1 | 221 | 5340 | 1600 | 1610 | –
COc1ccc(/C=C2\CCC/C(=C\c3ccc(OC)c(OC)c3)C2=O)cc1OC | – | – | – | – | IC50 [5]: 10000 nM; IC50 [6]: 10000 nM; IC50 [7]: 10000 nM; IC50 [8]: 10000 nM; IC50 [9]: 10000 nM; IC50 [10]: 10000 nM; IC50 [11]: 10000 nM; IC50 [12]: 10000 nM; IC50 [13]: 10000 nM; IC50 [14]: 10000 nM; IC50 [15]: 10000 nM; IC50 [16]: 10000 nM; IC50 [17]: 10000 nM; IC50 [18]: 10000 nM; IC50 [19]: 10000 nM
O=C1/C(=C/c2ccccc2)CN(C(=O)/C=C/c2ccc(Cl)cc2)C/C1=C\c1ccccc1 | 221 | 5340 | 1600 | 1610 | –
C=CC(=O)N1C/C(=C\c2ccc(N(C)C)cc2)C(=O)/C(=C/c2ccc(N(C)C)cc2)C1 | 280 | 280 | 280 | 280 | –
O=C1/C(=C/c2ccccc2F)CNC/C1=C\c1ccccc1F | – | – | – | – | GI50 [20]: 800 nM; IC50 ([21]; RPMI-7951, 72 h): 700 nM
O=C1/C(=C/c2ccccc2)CNC/C1=C\c1ccccc1 | 810 | 810 | 810 | 810 | –
O=C1/C(=C/c2ccc([N+](=O)[O-])cc2)CNC/C1=C\c1ccc([N+](=O)[O-])cc1 | 810 | 810 | 810 | 810 | –
C=CC(=O)N1C/C(=C\c2ccccc2)C(=O)/C(=C/c2ccccc2)C1 | 280 | 280 | 280 | 280 | –
COc1ccccc1/C=C/C(=O)/C=C/c1ccccc1OC | – | – | – | – | GI50 [20]: 1000 nM; GI50 [21]: 2300 nM
O=C1/C(=C/c2ccccc2F)COC/C1=C\c1ccccc1F | – | – | – | – | GI50 [20]: 800 nM; GI50 [21]: 800 nM
O=C1/C(=C/c2ccccc2)CN(C(=O)/C=C/c2ccc3c(c2)OCO3)C/C1=C\c1ccccc1 | 221 | 5340 | 1600 | 1610 | –
O=C1/C(=C/c2ccccc2)CN(C(=O)/C=C/c2ccc([N+](=O)[O-])cc2)C/C1=C\c1ccccc1 | 221 | 5340 | 1600 | 1610 | –
